Test results as given in patent US20070087985A1, “MRCK-related compositions and methods” (priority 2005, published 2007).

Legend:
Type in all cases: cell-based
[1] = test system: starved wound edge NIH-3T3 cells; test: MTOC reorientation in wounded starved monolayers (fixed, stained cells); details: for MTOC reorientation in starved cells without LPA: microinjected protein or expressed DNA, no other treatment; for effect on MTOC reorientation induced by LPA: pre-treatment with 0.5 μM CD or 50 μM BB
Procedure: (§1) NIH-3T3 cells were cultured in DMEM with 10% calf serum, serum starved for 2 days and wounded as previous described (9, 21).
(§2) Plasmid DNA was purified using Plasmid Midi Kit (Qiagen, Valencia, Calif.) and was microinjected into nuclei as described (38). Expression was detectable within 1-2 hr. Proteins were microinjected as described (9, 39). DIC mAb 74.1 (from K. Pfister, U. of Virginia), was microinjected at 10 mg/ml and Cdc42, Rac and Rho GTPases were microinjected at 1 mg/ml. For double microinjections, 100 μg/ml DNA (MRCK-WT or MRCK-CPC) was injected into the nucleus with 2 mg/ml fluorescein-ovalbumin. After 30 min, labelled cells were injected with DIC mAb, L61Cdc42 or human IgG as a control.
(§3) Phase contrast and fluorescence images of cells stained for pericentrin or γ-tubulin, β-catenin, DNA, expression tag, MTs. (Tyr tubulin) or injection marker were acquired as described (38, 39). MTOC reorientation was determined as previously described (39). For analysis of nucleus and MTOC position, images were pseudo-colored, aligned with the wound parallel to the X axis and then combined using Metamorph software. The cell perimeter was drawn over the cell-cell contacts (β-catenin, expression tags or injection markers) and the wound edge (Tyr-tubulin or injection markers) and the cell centroid was calculated using Metamorph software. Similarly, the nuclear perimeter was drawn and the centroid of the nucleus calculated. A vector representing the distances from the centroid of the nucleus and the MTOC (γ-tubulin or pericentrin staining and MT focus) to the cell centroid was drawn and resolved into X and Y coordinates (parallel and perpendicular to the leading edge, respectively). To allow comparison between cells, measurements were normalized to cell size. […] At least 30 cells from 3 independent experiments were analysed for each condition and error bars in plots are SEM.

[2] = test system: starved wound edge NIH-3T3 cells; test: Determination of nucleus and MTOC position relative to the cell centroid; details: for rearward nuclear movement in starved cells without LPA: microinjected protein or expressed DNA; for effect on rearward nuclear movement induced by LPA / effect on the position of the MTOC: pre-treatment with 0.5 μM CD or 50 μM BB; for effect on rearward nuclear movement induced by LPA / effect on the position of the MTOC / effect on LPA-induced rearward nuclear movement: 2 μM LPA, 2 hr
Procedure: as §1, §2, §3

[3] = test system: pSer19 MLC; test: Phospho-Ser19 MLC quantification; details: starved wound edge cells, injected, fixed 2.5 hr later
Procedure: Total cell extracts prepared in SDS sample buffer were analyzed by western blotting as described (38). For quantification of pSer19-MLC immunofluorescence, average cellular fluorescence intensity was determined with Metamorph software after subtracting background fluorescence (determined for an adjacent cell-free area). Data is from at least two independent experiments and error bars in plots are SEM.

[4] = test system: wound edge NIH-3T3 cells; test: Actin distribution (phalloidin staining)
Procedure: Actin retrograde flow is involved in nuclear movement. A. Region of 3T3-GFPTub cell used for kymograph in B. B. Kymograph showing retrograde movement of MTs and nucleus before and after 2 μM LPA addition. […] The nucleus is the broad dark band at the bottom of the kymograph and begins moving rearward in concert with MTs. C, D. Wound edge starved NIH-3T3 cells were microinjected with R-actin and time lapse images of actin speckles were acquired before (C) or after (D) addition of 2 μM LPA. Kymographs of a region of the lamella are shown (separate cells are shown in C and D). Actin speckles (arrowheads) remain stationary in the absence of LPA (C) but move away from the leading edge upon LPA addition (D). Note that the nucleus remains stationary in the absence of LPA (C) but moves rearward at the same rate as actin speckles after LPA addition (D). E. Starved wounded monolayers of NIH-3T3 cells were either left untreated or treated with 2 μM LPA with or without BB or CD as indicated. After 2 hr, coverslips were fixed, stained and the extent of MTOC reorientation determined. The level of random “reorientation” is ˜33%. F. The average positions of the MTOC and nucleus from the cells treated as in E were determined and plotted. G. Actin distribution (phallodin staining) in wound edge NIH-3T3 cells treated as indicated. Bar, G: 10 μm.
Cdc42 and MRCK activate nuclear movement to reorient the MTOC. A. Starved wound edge NIH-3T3 cells were injected with L61Cdc42, N17Cdc42 or Pak-CRIB domain proteins and then treated with 2 μM LPA for 2 hr. Cells were then fixed, stained and the positions of the nucleus and MTOC were determined. […] After expression (2 hr) cells were treated with 2 μM LPA for 2 hr, fixed, stained and the extent of MTOC reorientation determined. […] After expression (3 hr), cells were fixed, stained and the extent of MTOC reorientation was determined. D, E. Average nucleus and MTOC positions of cells from B and C were determined and plotted. […] Cells were fixed and stained and the percentage of expressing cells remaining at the wound edge determined. […]

[5] = test system: starved wound edge NIH-3T3 cells; test: Migration of expressing wound edge cells after serum stimulation; details: DNA microinjection, serum for 12 h
Procedure: Cdc42 and MRCK activate nuclear movement to reorient the MTOC. A. Starved wound edge NIH-3T3 cells were injected with L61Cdc42, N17Cdc42 or Pak-CRIB domain proteins and then treated with 2 μM LPA for 2 hr. Cells were then fixed, stained and the positions of the nucleus and MTOC were determined. MTOC reorientation is indicated as YES (>60%); NO (<40%). B. Starved wound edge NIH-3T3 cells were injected with DNA encoding myc-hPAK1 (hPAK1(83-149)), HA-MRCK-TM or Flag-MRCK-CPC. After expression (2 hr) cells were treated with 2 μM LPA for 2 hr, fixed, stained and the extent of MTOC reorientation determined. C. Serum starved wound edge NIH-3T3 cells were injected with DNA encoding […] HA-L61Cdc42, HA-L61Cdc42 plus flag-MRCK-CPC or flag-MRCK-WT (MRCK-WT). After expression (3 hr), cells were fixed, stained and the extent of MTOC reorientation was determined. D, E. Average nucleus and MTOC positions of cells from B and C were determined and plotted. F. Representative images of cells microinjected with the indicated constructs and treated with LPA as indicated before fixing and staining. Arrows indicate cells with expressed protein (green), pericentrin and β-catenin (red) and DNA (blue). G. Actin (phalloidin staining) in a cell injected with MRCK-TM (arrow) and treated with LPA. […] Cells were fixed and stained and the percentage of expressing cells remaining at the wound edge determined. […]

[6] = microinjected protein, antibody or expressed DNA construct
[7] = microinjected protein, antibody or expressed DNA construct, 2 μM LPA, 2 hr
[8] = 100 nM nocodazole with LPA for 2h
[9] = co-expression with HA-L61Cdc42, 3 hr

In the case of “L61Cdc42: constitutively active L61Cdc42 protein (microinjected) or HA-L61Cdc42 DNA”, the “MTOC reorientation in starved cells without LPA” value [1] is reported as “resulted in MTOC reorientation”, the “rearward nuclear movement in starved cells without LPA” value ([2]; no other treatment) is reported as “induced rearward nuclear movement” and the “pSer19 MLC immunofluorescence compared to noninjected cells” value [3] is reported as “substantially increased”.

In the case of `Cc1ccc2c(c1)C(=O)C1(O)CCN(c3ccccc3)C1=N2` (stereo not drawn) [BB, blebbistatin, reference compound], the “effect on MTOC reorientation induced by LPA” value ([1]; 2 μM LPA, 2 hr) is reported as “blocked”, the “effect on rearward nuclear movement induced by LPA” value [2] is reported as “blocked” and the “effect on the position of the MTOC” value [2] is reported as “without affecting”. For the same molecule, the “effect on LPA-induced changes in the actin cytoskeleton” value (from here on “effect on LPA-induced changes”) ([4]; CD or BB with 2 μM LPA) was “blocked”.

For “N17Cdc42: dominant-negative N17Cdc42 protein”, the “effect on LPA-induced rearward nuclear movement” value [2, 6] was “blocked”.

In the case of `C=C1[C@@H](C)[C@H]2[C@H](Cc3ccccc3)NC(=O)[C@]23[C@H](OC(C)=O)/C=C/[C@@](C)(O)C(=O)[C@@H](C)C/C=C/[C@H]3[C@@H]1O` [CD, cytochalasin D, reference compound], the “effect on MTOC reorientation” value ([1]; lower concentrations of CD (below 0.5 μM)) is reported as “had no effect”, the “effect on MTOC reorientation induced by LPA” value ([1]; 2 μM LPA, 2 hr) is reported as “blocked” and the “effect on rearward nuclear movement induced by LPA” value [2] is reported as “blocked”. For the same molecule, the “effect on the position of the MTOC” value [2] was “without affecting” and the “effect on LPA-induced changes” value ([4]; CD or BB with 2 μM LPA) was “blocked”.

For “wild type MRCK: wild type full length Rat MRCKa”, the “MTOC reorientation in starved cells without LPA” value [1] was “induced”, the “position of the MTOC in starved cells without LPA” value ([2]; expressed DNA, no other treatment) was “maintaining the MTOC at the cell centroid” and the “rearward nuclear movement in starved cells without LPA” value ([2]; no other treatment) was “induced”. For the same molecule, the “pSer19 MLC immunofluorescence compared to noninjected cells” value [3] was “increased” and the “effect on cell migration (expressing cells remaining at the wound edge)” value [5] was “no effect on cell migration”.

“MRCK-TM: dominant negative full length MRCKa with K106A, H1579A and H1582A mutations” was tested, and the “effect on LPA-induced MTOC reorientation” value [1, 7] was “blocked MTOC reorientation”, the “effect on LPA-induced rearward nuclear movement” value [2, 6] was “blocking the rearward movement of the nucleus” and the “effect on cell migration (expressing cells remaining at the wound edge)” value [5] was “migration was inhibited”. The “effect on LPA-induced changes” value ([4]; cell injected with DNA construct, treated with LPA) was “did not have a major effect”.

With `COC(=O)Nc1nc2ccc(C(=O)c3cccs3)cc2[nH]1` [nocodazole, reference compound] the “effect on LPA-induced MTOC reorientation” value [1, 8] was “blocked MTOC reorientation”, the “MTOC position upon nocodazole wash out” value ([2]; 100 nM nocodazole washed out, medium with LPA for another 2h) was “the MTOC returned to the cell center” and the “effect on MTOC centration” value [2, 8] was “interfering with MTOC centration”. For the same molecule, the “effect on nuclear movement” value [2, 8] was “not with nuclear movement”.

B1: hpak1(83-149): N-terminal autoregulatory domain of Pak1, which inhibits Pak1 activity (protein, UniProt Q13153 83-149, looked up, fragment)
chain: HTIHVGFDAVTGEFTGMPEQWARLLQTSNITKSEQKKNPQAVLDVLEFYNSKKTSNSQKYMSFTDKS
modifications: myc tag
B1 was tested, and the “effect on LPA-induced MTOC reorientation” value [1, 7] was “still reoriented their MTOC” and the “effect on LPA-induced rearward nuclear movement” value [2, 6] was “moved their nuclei rearward”.

B2: Par6: full length mouse Par-6 in pFLAG CMV2 (protein, UniProt Q9Z101 1-346, looked up)
chain: MARPQRTPARSPDSIVEVKSKFDAEFRRFALPRTSVRGFQEFSRLLCVVHQIPGLDVLLGYTDAHGDLLPLTNDDSLHRALASGPPPLRLLVQKRAEGDSSGLAFASNSLQRRKKGLLLRPVAPLRTRPPLLISLPQDFRQVSSVIDVDLLPETHRRVRLHKHGSDRPLGFYIRDGMSVRVAPQGLERVPGIFISRLVRGGLAESTGLLAVSDEILEVNGIEVAGKTLDQVTDMMVANSHNLIVTVKPANQRNNVVRGASGRLTGPSSVGPGPTDPDSDDDSSDLVIENRHPPCSNGLSQGPLCWDLQPGCLLPGAGSSLPSLDSREQANSGWGNGMRGDVSGFSL
modifications: full-length Flag tag
notes: full length mouse Par-6 in pFLAG CMV2
With B2 the “effect on LPA-induced MTOC reorientation” value [1, 7] was “blocked”, the “effect on LPA-induced rearward nuclear movement” value [2, 6] was “unaffected” and the “position of the MTOC relative to the cell centroid” value ([2]; microinjected protein, antibody or expressed DNA construct, LPA-treated (L61Cdc42 without LPA)) was “displacement of the MTOC from its position at the centroid”.

B3: MRCK-CPC: dominant negative truncated MRCKa, aa930-1492, lacks kinase domain and GTPase binding domain (protein, UniProt O54874 930-1492, looked up, fragment)
chain: QLIKDTEELRSEKGVEHRDSQHSFLAFLNTPTDALDQFERSPSCTPAGKGRRIADSAPLPVHTPTLRKKGCPASAGFPPKRKTHQFFVKSFTAPTKCHQCTSLMVGLIRQGCSCEVCGFSCHITCVNKAPTTCPVPPEQTKGPLGIDPQKGVGTAYEGHVRIPKPAGVKKGWQRALAVVCDFKLFLYDIAEGKASQPSSVISQVIDMRDEEFSVSSVLASDVIHASRKDIPCIFRVTASQLSAPSDKCSILMLADSETERSKWVGVLSELHKVLKKNKFRDRSVYVPKEAYDSTLPLIKTTQAAAIIDHERVALGNEEGLFVVHVTKDEIIRVGDNKKIHQIELIPSDQLVAVISGRNRHVRLFPMSALDGRETDFYKLAETKGCQTIAAGKVRHGALSCLCVAMKRQVLCYELFQSKTRHRKFKEIQVPCNVQWMAIFSEHLCVGFQSGFLRYPLNGEGSPCNMLHSNDHTLAFITHQPMDAICAVEISNKEYLLCFSSIGIYTDCQGRRSRQQELMWPANPSSCCYNAPYLSIYSENAVDIFDVNSMEWIQTLPLKKVRPL
modifications: Flag tag
For B3, the “effect on MTOC reorientation induced by L61Cdc42” value [1, 9] was “inhibited”, the “effect on LPA-induced MTOC reorientation” value [1, 7] was “blocked MTOC reorientation” and the “effect on nuclear movement induced by L61Cdc42” value [2, 9] was “inhibited”. The “effect on LPA-induced rearward nuclear movement” value [2, 6] was “blocking the rearward movement of the nucleus” and the “pSer19 MLC immunofluorescence compared to noninjected cells” value [3] was “no effect”.
